Assay [1] addresses T1, Human HDAC1 (Homo sapiens, UniProt Q13547).
T1 construct: full length with C-terminal His-tag and C-terminal FLAG-tag; His (C); FLAG (C); host or cells: baculovirus expression system
The experiment in a line: HDAC1 biochemical assay, AMC-labeled peptide substrate. The settings on record: read-out: HDAC Isoform IC50 (nM) 1. In a few lines: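 Baculovirus-expressed full-length human HDAC1 with His and FLAG tags, 0.3 ng/ul, incubated 1 h at 30° C with compound and 50 μM RHKK(Ac)AMC in Tris pH 8.0 buffer with BSA and 1% DMSO. Developer then releases AMC from deacetylated substrate; fluorescence read at 360/460 nm.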

The target of assay [2] is T2, Human HDAC4 (Homo sapiens, UniProt P56524).
T2 construct: amino acids 627-1085 with N-terminal GST tag; GST (N); host or cells: baculovirus expression system
The experiment in a line: HDAC4 biochemical assay, class IIa-specific substrate. The settings on record: read-out: HDAC Isoform IC50 (nM) 4. Summed up: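 GST-tagged human HDAC4 (aa 627-1085, baculovirus) at 0.004 ng/ul was incubated 30 min at room temperature with 50 μM class IIa-specific substrate BOC-Lys(trifluoroacetyl)-AMC in Tris-HCl pH 8.0 buffer with BSA, 1% DMSO. Developer then released AMC, read at 360/460 nm.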

Assay [3] concerns the target T3, Human HDAC5 (Homo sapiens, UniProt Q9UQL6).
T3 construct: full length with C-terminal His tag, MW=51.1 kDa; His (C); host or cells: baculovirus expression system
Put plainly: HDAC5 biochemical assay, class IIa-specific substrate. The following applies: read-out: HDAC Isoform IC50 (nM) 5. In a few lines:
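Full-length C-terminal His-tagged HDAC5 from baculovirus (0.05 ng/ul) incubated 30 min at room temperature with 50 μM Boc-Lys(trifluoroacetyl)-AMC and compound, Tris pH 8.0 buffer with BSA, 1% DMSO. Developer then releases AMC; fluorescence 360/460 nm.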

Assay [4] concerns the target T4, Recombinant human HDAC6 (Homo sapiens, UniProt Q9UBN7).
T4 construct: full length, MW=159 kDa; GST (N); host or cells: Sf9 insect cells (baculovirus)
T4 sequence (Q9UBN7 1-1215): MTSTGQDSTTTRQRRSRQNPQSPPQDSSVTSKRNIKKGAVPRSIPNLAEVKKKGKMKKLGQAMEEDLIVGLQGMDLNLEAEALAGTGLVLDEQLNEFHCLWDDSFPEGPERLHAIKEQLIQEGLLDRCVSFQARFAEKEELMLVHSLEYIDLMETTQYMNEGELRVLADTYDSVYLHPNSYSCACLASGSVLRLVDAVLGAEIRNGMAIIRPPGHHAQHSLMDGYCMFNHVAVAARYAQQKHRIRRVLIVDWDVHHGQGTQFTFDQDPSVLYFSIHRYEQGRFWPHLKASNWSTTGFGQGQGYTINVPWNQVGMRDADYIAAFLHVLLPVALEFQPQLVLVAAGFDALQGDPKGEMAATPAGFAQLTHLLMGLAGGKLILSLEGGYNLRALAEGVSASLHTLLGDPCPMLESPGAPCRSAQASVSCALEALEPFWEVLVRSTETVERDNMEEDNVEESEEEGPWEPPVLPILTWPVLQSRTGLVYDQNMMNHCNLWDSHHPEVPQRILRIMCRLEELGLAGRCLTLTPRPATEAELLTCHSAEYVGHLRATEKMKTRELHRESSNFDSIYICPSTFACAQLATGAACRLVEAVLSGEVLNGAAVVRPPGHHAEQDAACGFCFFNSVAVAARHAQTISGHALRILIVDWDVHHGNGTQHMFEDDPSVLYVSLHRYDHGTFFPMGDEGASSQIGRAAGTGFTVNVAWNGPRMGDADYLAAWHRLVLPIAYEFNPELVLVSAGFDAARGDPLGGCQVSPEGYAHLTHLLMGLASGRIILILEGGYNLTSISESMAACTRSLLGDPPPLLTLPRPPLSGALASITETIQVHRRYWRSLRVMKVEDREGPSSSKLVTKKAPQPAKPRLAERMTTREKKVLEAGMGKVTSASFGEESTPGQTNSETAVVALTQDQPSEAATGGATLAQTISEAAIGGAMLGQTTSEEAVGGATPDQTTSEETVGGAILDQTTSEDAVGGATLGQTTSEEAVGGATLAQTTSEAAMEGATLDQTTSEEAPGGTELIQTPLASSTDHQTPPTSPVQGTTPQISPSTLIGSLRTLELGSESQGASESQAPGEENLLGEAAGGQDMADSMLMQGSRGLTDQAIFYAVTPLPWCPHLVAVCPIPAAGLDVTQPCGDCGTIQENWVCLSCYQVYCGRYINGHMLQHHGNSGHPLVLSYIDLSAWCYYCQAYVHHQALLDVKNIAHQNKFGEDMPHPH
The experiment in a line: HDAC6 biochemical assay, AMC-labeled peptide substrate. The following applies: HDAC6; read-out: HDAC Isoform IC50 (nM) 6. Summed up:
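Two-step fluorogenic read-out: enzyme deacetylates 50 μM RHKK(Ac)AMC for 1 h at 30° C in pH 8.0 Tris buffer with BSA and 1% DMSO, then developer cleavage gives signal at Ex 360/Em 460. Enzyme: 0.3 ng/ul recombinant full-length human HDAC6, GST-tagged, Sf9-expressed.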

For assay [5], the target named is T5, Human HDAC7 (Homo sapiens, UniProt Q8WUI4).
T5 construct: (a.a. 518-end) with N-terminal GST tag; GST (N); host or cells: baculovirus expression system
T5 sequence (Q8WUI4 518-952 limits assumed): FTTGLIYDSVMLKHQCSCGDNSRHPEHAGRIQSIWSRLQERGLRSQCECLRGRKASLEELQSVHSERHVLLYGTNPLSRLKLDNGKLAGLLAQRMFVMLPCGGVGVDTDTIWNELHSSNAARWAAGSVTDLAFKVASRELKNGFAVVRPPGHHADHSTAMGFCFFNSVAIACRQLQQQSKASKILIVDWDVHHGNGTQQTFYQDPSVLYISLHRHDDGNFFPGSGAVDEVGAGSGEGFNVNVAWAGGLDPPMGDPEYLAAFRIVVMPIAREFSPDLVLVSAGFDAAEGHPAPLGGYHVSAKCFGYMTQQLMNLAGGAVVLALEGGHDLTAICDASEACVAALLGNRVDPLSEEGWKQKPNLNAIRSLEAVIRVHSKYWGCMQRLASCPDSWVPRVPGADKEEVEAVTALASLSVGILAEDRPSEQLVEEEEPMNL
The experiment in a line: HDAC7 biochemical assay, class IIa-specific substrate. The following applies: read-out: HDAC Isoform IC50 (nM) 7. In a few lines: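 GST-tagged HDAC7 (a.a. 518-end, baculovirus-expressed) at 0.001 ng/ul with 50 μM Boc-Lys(trifluoroacetyl)-AMC substrate, 30 min at room temperature in pH 8.0 Tris buffer with BSA, 1% DMSO final. Developer then releases AMC; fluorescence read at 360/460 nm.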

Assay [6] addresses T6, Human HDAC9 (Homo sapiens, UniProt Q9UKV0).
T6 construct: amino acids 604-1066 with C-terminal His tag; His (C); host or cells: baculovirus expression system
Put plainly: HDAC9 biochemical assay, class IIa-specific substrate. The settings on record: read-out: HDAC Isoform IC50 (nM) 9. Summed up:
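HDAC9 residues 604-1066 (C-terminal His tag, baculovirus-expressed) at 0.06 ng/ul with 50 μM class IIa substrate Boc-Lys(trifluoroacetyl)-AMC in Tris-HCl pH 8.0 buffer with BSA and 1% DMSO. 30 min at room temperature, then developer added; fluorescence read at 360/460 nm Ex/Em.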

In patent publication US20210038607A1, “OXADIAZOLYLTHIOPHENE DERIVATIVES USEFUL AS HISTONE DEACETYLASE INHIBITORS” (Karus Therapeutics Limited, priority 2018, published 2021) one finds IC50 data, which are given here for nine compounds.

T6 sequence (Q9UKV0 604-1066 isoform Q9UKV0-5): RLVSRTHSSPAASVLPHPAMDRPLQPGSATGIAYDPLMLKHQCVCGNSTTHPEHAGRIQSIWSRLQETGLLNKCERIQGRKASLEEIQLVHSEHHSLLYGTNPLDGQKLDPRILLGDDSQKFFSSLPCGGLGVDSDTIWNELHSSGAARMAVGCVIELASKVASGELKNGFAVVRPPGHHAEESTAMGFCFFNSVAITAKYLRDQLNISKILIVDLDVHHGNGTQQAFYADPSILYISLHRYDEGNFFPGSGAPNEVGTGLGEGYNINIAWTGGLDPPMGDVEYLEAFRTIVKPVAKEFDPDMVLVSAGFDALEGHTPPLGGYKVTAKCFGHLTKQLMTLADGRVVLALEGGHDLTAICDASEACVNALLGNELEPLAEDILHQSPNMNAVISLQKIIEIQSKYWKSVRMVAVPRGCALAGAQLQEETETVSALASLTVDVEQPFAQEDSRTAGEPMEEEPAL
T3 sequence (Q9UQL6 656-1122 limits assumed): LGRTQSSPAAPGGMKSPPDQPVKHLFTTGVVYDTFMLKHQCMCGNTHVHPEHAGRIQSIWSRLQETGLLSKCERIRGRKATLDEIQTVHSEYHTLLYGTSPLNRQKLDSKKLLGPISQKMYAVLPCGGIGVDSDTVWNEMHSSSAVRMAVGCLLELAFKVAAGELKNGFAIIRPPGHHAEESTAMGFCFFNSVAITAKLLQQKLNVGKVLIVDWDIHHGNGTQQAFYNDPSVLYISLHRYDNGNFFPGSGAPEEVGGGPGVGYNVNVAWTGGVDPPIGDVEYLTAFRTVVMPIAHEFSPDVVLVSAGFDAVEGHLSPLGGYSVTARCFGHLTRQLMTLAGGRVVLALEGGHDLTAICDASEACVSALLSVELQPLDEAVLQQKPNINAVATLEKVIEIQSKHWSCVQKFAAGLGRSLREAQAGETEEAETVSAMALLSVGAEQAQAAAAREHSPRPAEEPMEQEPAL
T2 sequence (P56524 627-1084 limits assumed): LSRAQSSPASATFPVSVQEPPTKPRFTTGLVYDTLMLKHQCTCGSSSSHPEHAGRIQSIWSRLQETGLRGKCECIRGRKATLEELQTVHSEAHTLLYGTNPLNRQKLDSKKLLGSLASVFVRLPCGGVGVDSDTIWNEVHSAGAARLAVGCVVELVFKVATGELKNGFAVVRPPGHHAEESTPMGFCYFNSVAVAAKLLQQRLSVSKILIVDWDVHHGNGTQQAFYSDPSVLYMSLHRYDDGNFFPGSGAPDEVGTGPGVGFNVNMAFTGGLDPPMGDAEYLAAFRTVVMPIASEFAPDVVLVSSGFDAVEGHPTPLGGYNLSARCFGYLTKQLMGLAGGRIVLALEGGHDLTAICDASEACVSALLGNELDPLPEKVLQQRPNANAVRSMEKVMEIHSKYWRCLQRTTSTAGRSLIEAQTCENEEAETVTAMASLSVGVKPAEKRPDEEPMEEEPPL
T1 sequence (Q13547 whole entry): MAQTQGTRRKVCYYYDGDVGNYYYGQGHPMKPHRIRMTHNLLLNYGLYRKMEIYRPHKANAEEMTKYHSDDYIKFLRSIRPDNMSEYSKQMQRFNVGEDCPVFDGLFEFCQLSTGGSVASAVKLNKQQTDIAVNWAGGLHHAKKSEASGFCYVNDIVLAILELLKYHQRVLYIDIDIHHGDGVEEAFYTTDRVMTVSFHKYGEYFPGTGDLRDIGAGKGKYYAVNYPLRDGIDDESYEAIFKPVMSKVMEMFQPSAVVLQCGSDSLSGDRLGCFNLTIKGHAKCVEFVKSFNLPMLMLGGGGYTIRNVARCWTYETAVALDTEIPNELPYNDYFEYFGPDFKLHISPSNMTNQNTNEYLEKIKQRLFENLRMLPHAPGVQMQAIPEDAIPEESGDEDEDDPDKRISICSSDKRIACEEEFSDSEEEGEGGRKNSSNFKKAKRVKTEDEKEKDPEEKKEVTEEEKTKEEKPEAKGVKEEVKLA

For `FC(F)(F)c1cnnc(N(Cc2ccc(-c3noc(C(F)(F)F)n3)s2)c2ncccn2)c1` [Example EK, N-(Pyrimidin-2-yl)-5-(trifluoromethyl)-N-({5-[5-(trifluoromethyl)-1,2,4-oxadiazol-3-yl]thiophen-2-yl}methyl)pyridazin-3-amine], the IC50 in assay [1] is > 10000 nM; in assay [2], > 10000 nM; in assay [3], ≤ 10000 nM; in assay [4], ≤ 10000 nM; in assay [5], > 10000 nM; in assay [6], > 10000 nM.
In the case of `FC(F)(F)c1cnnc(N(Cc2ccc(-c3noc(C(F)(F)F)n3)s2)c2ccncn2)c1` [Example EL, N-(Pyrimidin-4-yl)-5-(trifluoromethyl)-N-({5-[5-(trifluoromethyl)-1,2,4-oxadiazol-3-yl]thiophen-2-yl}methyl)pyridazin-3-amine], the IC50 in assay [1] was > 10000 nM; in assay [2], ≤ 10000 nM; in assay [3], ≤ 1000 nM; in assay [4], ≤ 1000 nM; in assay [5], ≤ 10000 nM; in assay [6], ≤ 10000 nM.
Regarding `Cc1cncc(N(Cc2ccc(-c3noc(C(F)(F)F)n3)s2)c2cc(C(F)(F)F)cnn2)n1` [Example EM, N-(6-Methylpyrazin-2-yl)-5-(trifluoromethyl)-N-({5-[5-(trifluoromethyl)-1,2,4-oxadiazol-3-yl]thiophen-2-yl}methyl)pyridazin-3-amine], the IC50 in assay [1] was > 10000 nM; in assay [2], ≤ 10000 nM; in assay [3], ≤ 10000 nM; in assay [4], ≤ 1000 nM; in assay [5], ≤ 10000 nM; in assay [6] it was > 10000 nM.
For the compound `Cc1cnc(N(Cc2ccc(-c3noc(C(F)(F)F)n3)s2)c2cc(C(F)(F)F)cnn2)cn1` [Example EO, N-(5-Methylpyrazin-2-yl)-5-(trifluoromethyl)-N-({5-[5-(trifluoromethyl)-1,2,4-oxadiazol-3-yl]thiophen-2-yl}methyl)pyridazin-3-amine], the IC50 in assay [1] was > 10000 nM; in assay [2], ≤ 10000 nM; in assay [3], ≤ 10000 nM; in assay [4], ≤ 10000 nM; in assay [5], ≤ 10000 nM; in assay [6], > 10000 nM.
As for `COc1cnc(N(Cc2ccc(-c3noc(C(F)(F)F)n3)s2)c2cc(C(F)(F)F)cnn2)cn1` [Example EP, N-(5-Methoxypyrazin-2-yl)-5-(trifluoromethyl)-N-({5-[5-(trifluoromethyl)-1,2,4-oxadiazol-3-yl]thiophen-2-yl}methyl)pyridazin-3-amine], the IC50 was > 10000 nM in assay [1]; ≤ 10000 nM in assay [2]; ≤ 10000 nM in assay [3]; ≤ 10000 nM in assay [4]; ≤ 10000 nM in assay [5]; > 10000 nM in assay [6].
Turning to `FC(F)(F)c1cnnc(N(Cc2ccc(-c3noc(C(F)(F)F)n3)s2)c2cncnc2)c1` [Example EQ, N-(Pyrimidin-5-yl)-5-(trifluoromethyl)-N-({5-[5-(trifluoromethyl)-1,2,4-oxadiazol-3-yl]thiophen-2-yl}methyl)pyridazin-3-amine], the IC50 in assay [1] is > 10000 nM; in assay [2], ≤ 10000 nM; in assay [3] it was ≤ 10000 nM; in assay [4], ≤ 1000 nM; in assay [5], ≤ 10000 nM; in assay [6], ≤ 10000 nM.
In the case of `FC(F)(F)c1cnnc(N(Cc2ccc(-c3noc(C(F)(F)F)n3)s2)c2ccc(C(F)(F)F)nn2)c1` [Example EV, 6-(Trifluoromethyl)-N-({5-[5-(trifluoromethyl)-1,2,4-oxadiazol-3-yl]thiophen-2-yl}methyl)-N-[5-(trifluoromethyl)pyridazin-3-yl]pyridazin-3-amine], the IC50 is > 10000 nM in assay [1]; ≤ 10000 nM in assay [2]; ≤ 10000 nM in assay [3]; ≤ 10000 nM in assay [4]; ≤ 10000 nM in assay [5]; > 10000 nM in assay [6].
For `FC(F)(F)c1cnnc(N(Cc2ccc(-c3noc(C(F)(F)F)n3)s2)c2ccc(N3CCCC3)nn2)c1` [Example EW, 6-(Pyrrolidin-1-yl)-N-({5-[5-(trifluoromethyl)-1,2,4-oxadiazol-3-yl]thiophen-2-yl}methyl)-N-[5-(trifluoromethyl)pyridazin-3-yl]pyridazin-3-amine], the IC50 in assay [1] was > 10000 nM; in assay [2], ≤ 10000 nM; in assay [3] it was ≤ 10000 nM; in assay [4], ≤ 10000 nM; in assay [5] it was ≤ 10000 nM; in assay [6], ≤ 10000 nM.
Turning to `FC(F)(F)c1cnnc(N(Cc2ccc(-c3noc(C(F)(F)F)n3)s2)c2ccc(N3CCOCC3)nn2)c1` [Example EX, 6-(Morpholin-4-yl)-N-({5-[5-(trifluoromethyl)-1,2,4-oxadiazol-3-yl]thiophen-2-yl}methyl)-N-[5-(trifluoromethyl)pyridazin-3-yl]pyridazin-3-amine], the IC50 in assay [1] was ≤ 10000 nM; in assay [2], ≤ 10000 nM; in assay [3], ≤ 10000 nM; in assay [4], ≤ 1000 nM; in assay [5], ≤ 10000 nM; in assay [6], ≤ 10000 nM.

By IC50 is commonly meant the concentration that inhibits the measured activity by half.
